Test results reported in patent publication US20150259371A1, “METHODS AND COMPOUNDS FOR INHIBITING GLYCOSYLTRANSFERASES” (SIMON FRASER UNIVERSITY, priority 2010, published 2015).

biological target: T1, OGA (Homo sapiens, UniProt O60502); test: OGA kinetics, Michaelis-Menten hydrolysis of pMP glycosides; type: biochemical; details: 37° C.
T1 construct: made in house
T1 sequence (O60502 1-916): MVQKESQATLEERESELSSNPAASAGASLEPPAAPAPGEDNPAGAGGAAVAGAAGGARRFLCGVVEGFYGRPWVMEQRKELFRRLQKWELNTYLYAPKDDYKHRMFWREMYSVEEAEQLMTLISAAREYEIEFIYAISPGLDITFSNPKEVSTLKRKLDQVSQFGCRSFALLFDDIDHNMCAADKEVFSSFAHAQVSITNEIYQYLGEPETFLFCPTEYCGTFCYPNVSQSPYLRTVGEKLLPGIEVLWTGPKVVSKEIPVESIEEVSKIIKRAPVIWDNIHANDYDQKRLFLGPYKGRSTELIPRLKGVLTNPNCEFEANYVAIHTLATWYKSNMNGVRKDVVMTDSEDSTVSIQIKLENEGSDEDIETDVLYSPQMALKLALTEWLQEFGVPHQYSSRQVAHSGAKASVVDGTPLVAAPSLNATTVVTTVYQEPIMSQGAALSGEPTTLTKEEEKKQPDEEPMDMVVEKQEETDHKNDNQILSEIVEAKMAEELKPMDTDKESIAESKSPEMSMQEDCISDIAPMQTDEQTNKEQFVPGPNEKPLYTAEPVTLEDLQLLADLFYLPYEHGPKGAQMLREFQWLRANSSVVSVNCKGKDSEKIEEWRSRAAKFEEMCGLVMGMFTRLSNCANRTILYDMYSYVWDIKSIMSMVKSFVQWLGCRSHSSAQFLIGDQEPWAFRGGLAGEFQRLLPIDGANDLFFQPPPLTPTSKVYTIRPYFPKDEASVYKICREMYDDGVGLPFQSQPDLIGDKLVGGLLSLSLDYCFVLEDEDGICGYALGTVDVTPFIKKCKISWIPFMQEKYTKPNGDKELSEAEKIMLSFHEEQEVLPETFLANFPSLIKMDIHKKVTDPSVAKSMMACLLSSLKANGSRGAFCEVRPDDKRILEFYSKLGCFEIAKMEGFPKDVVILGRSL
Procedure: OGA kinetics: Synthesis and characterization of para-methoxyphenyl-5SGlcNAc is described in Example II. Kinetics were performed at 37° C. in PBS, pH 7.4 in a total volume of […]. Substrate concentrations of 25 μM to 1.5 mM were used for pMP-GlcNAc and 25 to 800 μM for pMP-5SGlcNAc. OGA (which was over-expressed and purified as described in Ref. ^42) was used at a concentration of 1 μM for pMP-GlcNAc and 3.6 μM for pMP-5SGlcNAc. Rates were monitored at a wavelength of 296 nm over the course of 10-20 min. Data were fit to the Michaelis-Menten equation in GRAFIT^41 and the kcat and KM values determined.

| SMILES | Km [µM] | kcat for OGA hydrolysis |
| --- | --- | --- |
| COc1ccc(O[C@@H]2O[C@H](CO)[C@@H](O)[C@H](O)[C@H]2NC(C)=O)cc1 [pMP-GlcNAc, para-methoxyphenyl-GlcNAc, reference compound] | 350 | 14.3 nmol/s/mg |
| COc1ccc(O[C@H]2S[C@H](CO)[C@@H](O)[C@H](O)[C@H]2NC(C)=O)cc1 [Compound 14, para-Methoxyphenyl 2-acetamido-2-deoxy-5-thio-α-D-glucopyranoside] |  | 0.28 nmol s^−1 me |

same assay, conditions: human OGA

| SMILES | Vmax/E0KM for OGA hydrolysis [μmol s^−1 mg^−1 M^−1] | fold less efficiently processed by OGA than pMP-GlcNAc [fold] |
| --- | --- | --- |
| COc1ccc(O[C@@H]2O[C@H](CO)[C@@H](O)[C@H](O)[C@H]2NC(C)=O)cc1 [pMP-GlcNAc, para-methoxyphenyl-GlcNAc, reference compound] | 40.7 |  |
| COc1ccc(O[C@H]2S[C@H](CO)[C@@H](O)[C@H](O)[C@H]2NC(C)=O)cc1 [Compound 14, para-Methoxyphenyl 2-acetamido-2-deoxy-5-thio-α-D-glucopyranoside] | 8.1 | 5 |

test system: O-GlcNAc levels in COS-7 cells; test: Western blot of O-GlcNAc levels (CTD110.6) in treated COS-7 cells; type: cell-based, African green monkey; details: 50 μM, 24 h
Procedure: Cell culture: Cells were grown in an incubator at 37° C. and 5% CO2 atmosphere. Media and serum were purchased from Invitrogen. COS-7 cells were cultured in Dulbecco's modified Eagle's medium (DMEM) with 5% fetal bovine serum (FBS), and were typically 80-100% confluent prior to experimentation. HepG2, SK-N-SH, and EMEG32^−/− cells were cultured in Dulbecco's modified Eagle's medium (DMEM) with 5% fetal bovine serum (FBS), CHO cells in DMEMF-12 with 5% FBS and PC12 cells in DMEM with 5% FBS and 5% horse serum. Prior to experimentation, PC12 cells were plated at a density of 3-4×10^5 cells10 cm plate, which had been pre-treated with 5 μgcm^2 rat tail collagen (BD Biosciences). Cells were differentiated in DMEM containing 1% horse serum, in the presence of 2.5S mouse nerve growth factor (Chemicon) at a final concentration of 25 ng mL^−1, for 4-5 days prior to treatment. Other cell lines were 80-100% confluent prior to treatment. Following treatment with (Ac-)5SGlcNAc, using various conditions, cells were washed gently with PBS, lysed in SDS loading buffer and boiled for 10 minutes. Mouse hybridoma cells (obtained from the Developmental Studies Hybridoma Bank; antibody E7 for (:1-tubulin) were cultured in RPMI40 with 10% FBS. Prior to treatment with Ac-5SGlcNAc, hybridoma cells were cultured for 2 days in RPMI40 with 5% FBS, and during treatment in RPMI40 with no serum. Cells were collected, centrifuged (800 x g, 5 min) and the supernatant removed. Cells were washed with PBS, centrifuged, the pellet resuspended in SDS loading buffer and boiled. The supernatant after centrifugation, which contained the IgG antibody produced by the cells, was used for immunoprecipitation (see below for details).
Westernlectin blots: Samples were run on 10% SDS polyacrylamide gels and transferred onto nitrocellulose membranes (Biorad). Membranes were blocked for 1 h in PBS containing 0.1% Tween-20 (PBS-T) containing 1% (unless otherwise stated) bovine serum albumin (BSA), and probed with the appropriate primary antibody or lectin in 1% BSA in PBS-T overnight at 4° C. Blots were washed for 1 hr with PBS-T, and blocked for a further 30 min with 1% BSA in PBS-T at room temperature. They were then probed with the appropriate horseradish peroxidise (HRP)-conjugated secondary antibodyprobe in 1% BSA in PBS-T at room temperature for 1 h, followed by washing in PBS-T for 1 h. Blots were developed with SuperSignal West Pico Chemiluminescent Substrate (Pierce) and exposed to CL-XPosure film (Pierce). Densitometry was performed using ImageQuant 5.2 (Molecular Dynamics), and fits to the data were made using GRAFIT^41.
Antibodieslectins: O-GlcNAc levels were assessed primarily using CTD110.6 (Covance), but RL2 (Abcam) and HGAC85 (Abcam) were also tested. Actin was probed using JLA20 (Developmental Studies Hybridoma Bank). OGA levels were assessed using a polyclonal anti-OGA antibody which was a kind gift from Dr. Gerald Hart and OGT levels using H-300 (Santa Cruz Biotechnology). nup62 was probed using mAb 414 (Covance). Secondary antibodies employed (HRP-conjugated goat anti-mouse IgM, goat anti-mouse IgG, goat anti-chicken IgY and goat anti-rabbit IgG) were obtained from Santa Cruz Biotechnology. Biotinylated-ConA, PHA-L, SNA and MAA were purchased from EY Laboratories, and biotinylated-GNA from Vector Laboratories. HRP-conjugated streptavidin (Pierce) was used as a probe for the biotinylated lectins.
Analogues (9, 10, 17-41) were tested in COS-7 cells, dosed at a final concentration of 50 μM in DMSO for 24 h. Following treatment, cells were washed with PBS, harvested into SDS-PAGE loading buffer and analyzed by western blot using standard procedures; blots were probed with the anti-O-GlcNAc antibody (CTD 110.6).

| SMILES | effect on O-GlcNAc levels at single dose | extent of decrease of O-GlcNAc levels relative to parent compound 9 |
| --- | --- | --- |
| CC(=O)OCC1SC(OC(C)=O)C(NC(=O)CC2CCCCC2)C(OC(C)=O)C1OC(C)=O [Compound 33, N-(2-Cyclohexylacetyl)-1,3,4,6-tetra-O-acetyl-a-D-5-thio-glucosamine] | decreased O-GlcNAc levels in cells |  |
| O=C(Cc1cccc2ccccc12)NC1C(O)SC(CO)C(O)C1O [Compound 36, N-(1-Naphthylacetyl)-α-D-5-thio-glucosamine] | decreased O-GlcNAc levels in cells |  |
| O=C(CC1CCCCC1)NC1C(O)SC(CO)C(O)C1O [Compound 34, N-(2-cyclohexylacetyl)-a-D-5-thio-glucosamine] | decreased O-GlcNAc levels in cells |  |
| CCCCCC(=O)NC1C(OC(C)=O)SC(COC(C)=O)C(OC(C)=O)C1OC(C)=O [Compound 27, N-hexonoyl-1,3,4,6-tetra-O-acetyl-a-D-5-thio-glucosamine] | decreased O-GlcNAc levels in cells | comparable extent to the parent compound |
| CCCCC(=O)NC1C(OC(C)=O)SC(COC(C)=O)C(OC(C)=O)C1OC(C)=O [Compound 23, N-(n-valeryl)-1,3,4,6-tetra-O-acetyl-α-D-5-thio-glucosamine] | decreased O-GlcNAc levels in cells |  |
| CCC[C@H](C)C(=O)N[C@@H]1[C@@H](O)[C@H](O)[C@@H](CO)S[C@@H]1O [Compound 38, N-[(S)-2-methylvaleryl]-a-D-5-thio-glucosamine] | decreased O-GlcNAc levels in cells | comparable extent to the parent compound |
| CC(=O)OC[C@H]1S[C@H](OC(C)=O)[C@H](N)[C@@H](OC(C)=O)[C@@H]1OC(C)=O.O=S(=O)(O)O [Compound 31′, 1,3,4,6-tetra-O-acetyl-a-D-5-thio-glucosamine sulphuric acid salt] | decreased O-GlcNAc levels in cells |  |
| CC[C@H](C)CC(=O)NC1C(OC(C)=O)SC(COC(C)=O)C(OC(C)=O)C1OC(C)=O (stereo partly drawn) [Compound 37, N-[(S)-methylvaleryl]-1,3,4,6-tetra-O-acetyl-α-D-5-thio-glucosamine] | decreased O-GlcNAc levels in cells | comparable extent to the parent compound |
| CC(=O)OCC1SC(OC(C)=O)C(NC(=O)Cc2cccc3ccccc23)C(OC(C)=O)C1OC(C)=O [Compound 35, N-(1-naphthylacetyl)-1,3,4,6-tetra-O-acetyl-α-D-5-thio-glucosamine] | decreased O-GlcNAc levels in cells |  |
| CC(=O)OCC1SC(OC(C)=O)C(NC(=O)CC(C)C)C(OC(C)=O)C1OC(C)=O (stereo not drawn) [Compound 25] | decreased O-GlcNAc levels in cells |  |
| CCC(=O)NC1C(OC(C)=O)SC(COC(C)=O)C(OC(C)=O)C1OC(C)=O [Compound 17, N-proprionyl-1,3,4,6-tetra-O-acetyl-α-D-5-thio-glucosamine] | decreased O-GlcNAc levels in cells |  |
| CCCC(=O)NC1C(OC(C)=O)SC(COC(C)=O)C(OC(C)=O)C1OC(C)=O [Compound 19, N-(n-butyryl)-1,3,4,6-tetra-O-acetyl-a-D-5-thio-glucosamine] | decreased O-GlcNAc levels in cells |  |
| CC(=O)OCC1SC(OC(C)=O)C(NC(=O)C(C)C)C(OC(C)=O)C1OC(C)=O [Compound 21, N-(i-butyryl)-1,3,4,6-tetra-O-acetyl-a-D-5-thio-glucosamine] | decreased O-GlcNAc levels in cells |  |

same assay, conditions: 24 hours

| SMILES | effect on O-GlcNAc levels, dose response |
| --- | --- |
| CC(=O)NC1C(O)SC(CO)C(O)C1O [Compound 10, N-acetyl-α-D-5-thio-glucosamine] | decreased O-GlcNAc levels in a dose-dependent fashion |

same assay, conditions: Chlorocebus sabaeus, 24 h, densitometry of western blot, read-out: EC50 for reduction of O-GlcNAc levels

| SMILES | EC50 [µM] |
| --- | --- |
| CC(=O)NC1C(O)SC(CO)C(O)C1O [Compound 10, N-acetyl-α-D-5-thio-glucosamine] | 700 |
